# From patent US20240287148A1, “ENGINEERED BIOMOLECULES FOR NUTRIENT REPROGRAMMING” (CORNELL UNIVERSITY, priority 2021, published 2024)
# Where a SMILES comes first, the peptide text is derived from it. The star is where a group is joined. Cbz = O=C(OCc1ccccc1)*; CH2F = FC*
# Columns and labels:
# MEF cells [1] = assay: Cell viability assay (ferroptosis) in MEF cells; type: cell-based, mouse; settings: for cell death under cystine restriction (cell viability): Necrostatin 5 μM, Ferrostatin 1 μM
# Experimental: Cells were seeded into 96-well plates at 3,000 cells per well. After 16 hr, cells were subject to conditions of the indicated experiments. Cells were incubated for 24 hr in their experimental conditions and cell viability was measured using the CellTiter-Blue viability assay (Promega) following the manufacturer's instructions. Relative cell viability in the presence of starvation and/or compounds was normalized to the vehicle-treated controls after background subtraction.
# NRF2 = assay: ARE-driven Fluc reporter assay (NRF2 activity) in MEF cells; type: cell-based, mouse; settings: cystine starvation 8 hr, BafilomycinA 50 nM or ConcanamycinA 100 nM
# Experimental: (§1) Firefly luciferase reporters were co-transfected with a Renilla reporter plasmid into MEF cells or CTNS knockdown cells for 4 hrs. Transfected cells were treated with amino acid starvation and/or compound treatment at indicated timepoints. Firefly and Renilla luciferase activities were measured using Dual-Luciferase Reporter Assay System (Promega). Relative values of firefly luciferase activities were normalized to Renilla luciferase control.
# MEF cells [2] = assay: Lipid peroxidation measurement (C11-BODIPY, flow cytometry) in MEF cells; type: cell-based, mouse; settings: for lipid oxidation in cystine-starved cells (C11-BODIPY): cystine deprivation 18 hrs, BafA1 50 nM or ConA
# Experimental: Cells were plated in 6-well dishes and followed by indicated treatments. After treatment, cells were incubated with fresh medium containing 2 μM BODIPY 581/591 C11 dye (Invitrogen: D3861) for 15 min. Cells were next collected and washed twice with ice-cold PBS followed by fluorescence-activated cell sorting (FACS) analysis using Thermo Fisher Attune NxT. Fluorescence captured during analysis was gated and plotted using FCS Express 7.
# ATF4 = ATF4 expression in MEF cells (western blotting, RT-qPCR of Atf4); type: cell-based, mouse; settings: for ATF4 induction in cystine-starved cells: cystine deprivation
# Experimental: For cystine and methionine deprivation, the experiment was carried out by incubating cells in DMEM, high glucose, no glutamine, no methionine, no cystine (Thermo Fisher: 21013024) with 10% dialyzed FBS (Sigma Aldrich: F0392). For leucine, histidine, and arginine deprivation, the experiment was carried out by incubating cells in DMEM, high glucose, no arginine, no histidine, no leucine, respectively, (custom prepared by Gibco/Invitrogen) with 10% dialyzed FBS (Sigma Aldrich: F0392). For full amino acid starvation, the experiment was carried out by incubating cells in HBSS buffer (Lonza) with 10% dialyzed FBS (Sigma Aldrich: F0392). Samples were collected at indicated experimental time points.
# Following experimental conditions, total RNA was isolated by TRIzol reagent (Invitrogen) and reverse transcription was performed using High-Capacity cDNA Reverse Transcription Kit (Invitrogen). Real-time PCR analysis was conducted using Power SYBR Green PCR Master Mix (Applied Biosystems) and data was generated using a LightCycler 480 Real-Time PCR System (Roche Applied Science). qPCR oligo sequences are listed in Table 4.
# (§2) Cells were washed with PBS (Gibco) and then lysed on ice using cell lysis buffer (50 mM Tris [pH7.5], 150 mM NaCl, 1 mM EDTA, 1% Triton X-100, 2 U/ml DNase and protease inhibitor cocktail tablet). The lysates were incubated on ice for 30 min and spun down at 10,000 rpm for 3 mins to collect supernatant. Collected supernatant was measured by protein assay (Bio-Rad: 500-0112) to quantify the protein concentration. Equal amounts of proteins across samples were mixed with SDS-PAGE sample buffer (50 mM Tris [pH6.8], 100 mM dithiothreitol, 2% SDS, 0.1% bromophenol blue, 10% glycerol) and heated for 9 mins at 95° C. Denatured proteins were separated on SDS-PAGE and transferred to PVDF membranes (Fisher). Membranes were blocked in TBS containing 5% non-fat milk and 0.1% Tween-20 for 1 hr. Phospho-proteins were blocked in TBS containing 5% BSA and 0.1% Tween-20 for 1 hr. Blocking was followed by incubation with primary antibodies overnight at 4° C. Membranes were washed using TBST followed by subsequent incubation using horseradish peroxidase-coupled secondary antibodies at room temperature for 1 hr. Immunoblots were washed again using TBST and visualized using enhanced chemiluminescence (ECL-Plus, GE Healthcare).
# UMRC6 tumors = assay: CysRx treatment of xenografted UMRC6 tumors in mice (tumor growth); type: in vivo, mouse; settings: IKE 10 mg/kg intraperitoneal every other day, 25 days
# Experimental: (§3) Previously established UMRC6 tumors were immediately excised from CO2 euthanized mice and minced using a surgical 10 blade. Approximately […] portions of tumor were bilaterally implanted into 6-8-week-old NSG mice. Animals were monitored for tumor growth and randomized into treatment groups when tumors reached 150-200 mm^3 in size. IKE/vehicle treated animals received intraperitoneal injections every other day (10 mg/kg). CysRx-TT3 treatment was conducted via weekly intratumoral (IT) injections (100 μL) for three weeks. Tumors for IT injections were demarcated into four quadrants and an equal volume (25 μL) of CysRx-TT3 was injected into each quadrant. HiBit-TT3 was injected into the other flank as control. Mice were monitored for tumor growth three times per week using digital calipers. Health and body condition were also monitored concurrently. Animals were sacrificed by CO2 euthanasia (3.5 L/min) one week after final administration or when the body condition started to deteriorate. Tumors were excised from the flank using a surgical 10 blade, weighed and either flash frozen or fixed in 4% PFA.
# Magnetic resonance imaging (MRI) of mice was conducted using a 1T M3 compact MRI from Aspect Imaging Ltd. Mice were anesthetized using 2.5% isoflurane and placed onto the specimen arm, coil was then placed around the subject and fixed in place. […]
# [3] = Body weight of tumor-bearing mice; type: in vivo, mouse; settings: mice with UMRC6 tumors; IKE 10 mg/kg/2d intraperitoneal; CysRx-TT3 intratumoral
# Experimental: as §3
# MEF cells [4] = assay: Intracellular cysteine and cystine measurement in MEF cells (HPLC); type: cell-based, mouse
# Experimental: Cells were grown on 100 mm dishes until 80-90% confluent. Cells were lysed on ice in lysis buffer (50 mM Tris [pH7.5], 150 mM NaCl, 1 mM EDTA, 1% Triton X-100, 2 U/ml DNase and protease inhibitor cocktail tablet), followed by centrifugation at 10,000 rpm for 8 min at 4° C. The supernatant was collected and 100 μL of sample was mixed with 10 μL TCEP (50 mM in borate buffer [pH 7.4]) (Sigma Aldrich) in a vial and incubated at 25° C. for 10 min.
# 90 μL of a solution containing 1% TCA and 1 mM EDTA was then added. The total solution was centrifuged for 10 min at 10,000 g at 4° C. 100 μL of the obtained supernatant, 20 μL of 10 mM CNBF solution (4-chloro-3,5-dinitrobenzotrifluoride [Sigma Aldrich: 197017]), 20 μL of methanol, and 50 μL of borate buffer (0.2 M [pH 8.0])) were mixed and incubated at 25° C. for 20 min. Derivatization was terminated with 10 μL of 2M HCl followed by HPLC analysis (see below).
# Cells were grown on 100 mm dishes until 80-90% confluent. Cells were lysed on ice in lysis buffer (50 mM Tris [pH7.5], 150 mM NaCl, 1 mM EDTA, 1% Triton X-100, 2 U/ml DNase and protease inhibitor cocktail tablet). 100 μL of sample was mixed with 100 μL of 6%5-Sulfosalicylic Acid Dyhydrate solution (Sigma: S3147), followed by centrifugation at 3,000 g for 15 min at 4° C. The supernatant was collected and 25 μL of freshly made derivatizing solution was added. Samples sat at room temperature for 20 mins, followed by rotary evaporation. Dried material was dissolved in 150 μL of phase A solution followed by HPLC analysis (see below).
# All resulting solutions for cysteine, glutathione, and cystine were filtered through a 0.22 μm filter membrane (Millipore Corporation, Belfast, MA, USA) and injected into a chromatographic system. High performance liquid chromatography (HPLC) was performed using a LC-20AT pump with a SPD-20AV UV-vis detector monitored at 270 and 220 nm (Shimadzu, Japan) equip with an Ultra Aqueous C18 column (100 Å, 5 μm, 250 mm×4.6 mm; Restek, USA) at a flow rate of 1 mL/min with a mobile phase containing 0.1% trifluoroacetic acid (TFA) in H2O or acetonitrile. Values were normalized to protein concentration by Bradford assay.
# Atf4 promoter = assay: Atf4 promoter-driven Fluc reporter assay in MEF cells; type: cell-based, mouse; settings: BafilomycinA 50 nM 8 hrs with or without cystine deprivation
# Experimental: as §1
# MEF cells [5] = assay: Cell fractionation and western blotting of MEF cells transfected with CysRx; type: cell-based, mouse; settings: BafilomycinA 50 nM for 12 hrs
# Experimental: as §2
# MEF cells were grown in four 15 cm dishes until 80% confluent (˜3×10^8 cells) followed by washing twice with ice-cold PBS. […]
# [6] = MEF cells, 24 hrs cystine deprivation, Z-VAD 20 μM
# [7] = MEF cells, cystine deprivation 24 hrs, BafilomycinA 50 nM or ConcanamycinA 100 nM
# [8] = BafilomycinA 50 nM for 12 hrs, normalized to protein
smiles,measurement,setting,value
"CN1C(=O)C(Cc2c[nH]c3ccccc23)NC1=S (stereo not drawn) [necrostatin, necrostatin-1]",cell death under cystine restriction (cell viability),MEF cells [1]; [6],not
COC(=O)C[C@H](NC(=O)[C@H](C)NC(=O)[C@@H](NC(=O)OCc1ccccc1)C(C)C)C(=O)CF [Z-VAD] (Cbz-Val-Ala-Asp(OMe)-CH2F),cell death under cystine restriction (cell viability),MEF cells [1]; [6],not
same,reduced cell viability under full amino acid starvation,"MEF cells [1]; MEF cells, 24 hrs full amino acid starvation, Z-VAD 20 μM",rescued
"C/C=C/[C@H]1O[C@@](O)([C@@H](C)[C@H](O)[C@H](C)[C@H]2OC(=O)/C(OC)=C/C(C)=C/[C@@H](C)[C@@H](O)[C@@H](CC)[C@@H](O)[C@H](C)C/C(C)=C/C=C/[C@@H]2OC)C[C@@H](O[C@H]2C[C@@H](O)[C@H](OC(N)=O)[C@@H](C)O2)[C@@H]1C [ConA, concanamycin A]",NRF2 activation (ARE Fluc reporter),NRF2,prevented
same,ferroptosis in cystine-starved cells (cell viability),MEF cells [1]; [7],prevented
same,lipid oxidation in cystine-starved cells (C11-BODIPY),MEF cells [2],significantly reduced
"CCCCS(=N)(=O)CCC(N)C(=O)O (stereo not drawn) [BSO, buthionine sulfoximine]",ATF4 expression,"ATF4; MEF cells, BSO 10 μM, 8 hrs",induced
CCOC(=O)c1ccc(NC2CCCCC2)c(N)c1 [ferrostatin-1],cell death under cystine restriction (cell viability),MEF cells [1]; [6],prevented
N[C@@H](CCS(=O)(=O)O)C(=O)O [homocysteic acid],ATF4 expression,"ATF4; MEF cells, HCA 10 mM",induced
O=C(COc1ccc(Cl)cc1)NC1CCC(NC(=O)COc2ccc(Cl)cc2)CC1 (stereo not drawn) [ISRIB],cystine shortage-induced ATF4 upregulation (western blotting),"ATF4; eIF2a(S/S) and eIF2a(A/A) MEF cells, 8 hrs amino acid starvation, ISRIB 100 nM",insensitive
CC(C)n1cnc2c(NCCc3ccc(O)cc3)nc(-c3csc4ccccc34)nc21 [SR1],ATF4 induction in cystine-starved cells,"ATF4; MEF cells, SR1 200 nM or Indirubin 2 μM",significantly reduced
same,ferroptosis of cystine-starved cells (cell viability),"MEF cells [1]; MEF cells, cystine deprivation 24 hrs, SR1 200 nM or Indirubin 2 μM",promoted
"CC(C)Oc1ccc(C(=O)Cn2ccnc2)cc1-n1c(CN2CCN(C(=O)COc3ccc(Cl)cc3)CC2)nc2ccccc2c1=O [IKE, imidazole ketone erastin]",tumor growth,UMRC6 tumors,suppressed
same,body weight,[3],weight loss
C[C@@H]1C[C@@H]([C@H](O)CC2CC(=O)NC(=O)C2)C(=O)[C@@H](C)C1 [cycloheximide],intracellular cyst(e)ine levels,"MEF cells [4]; 12 hrs amino acid starvation, Cycloheximide 50 μM",largely restored
same,ferroptosis induced by erastin and sulfasalazine (cell viability),"MEF cells [1]; MEF cells, 24 hrs Erastin 20 μM or Sulfsalazine 200 μM, Cycloheximide 50 μM",partially rescued
same,"increased ferroptosis susceptibility under cystine deprivation (cell viability, lipid ROS)","MEF cells [1]; MEF cells, 24 hrs cystine deprivation, Cycloheximide 50 μM",prevented
"CO/C1=C\C(C)=C\[C@@H](C)[C@@H](O)[C@@H](C)C/C(C)=C/C=C/[C@H](OC)[C@@H]([C@@H](C)[C@@H](O)[C@H](C)[C@@]2(O)C[C@@H](O)[C@H](C)[C@@H](C(C)C)O2)OC1=O [BafA1, bafilomycin A1]",ATF4 induction in cystine-starved cells,"ATF4; MEF cells, BafilomycinA 50 nM 8 hrs, ConcanamycinA 100 nM 12 hrs",greatly potentiated
same,cysteine level,MEF cells [4]; [8],increase
same,cystine level,MEF cells [4]; [8],decrease
same,cytosolic cysteine level in cystine-starved cells,"MEF cells [4]; cystine deprivation, BafilomycinA 50 nM 12 hrs",partially restored
same,Atf4 promoter-driven Fluc activity (normalized to Renilla),Atf4 promoter,transcriptional upregulation
same,NRF2 activation (ARE Fluc reporter),NRF2,prevented
same,ferroptosis in cystine-starved cells (cell viability),MEF cells [1]; [7],prevented
same,lipid oxidation in cystine-starved cells (C11-BODIPY),MEF cells [2],significantly reduced
same,CysRx level (western blotting),MEF cells [5],CysRx accumulation
NCCS [cysteamine],ATF4 induction under the cystine rich condition,"ATF4; MEF cells, Cysteamine 0.5 mM, 12 hrs",pronounced ATF4 induction
same,cysteine in the cytosol,"MEF cells [4]; Cysteamine 0.5 mM, 12 hrs",increase
same,lysosomal cystine level,"MEF cells [4]; Cysteamine 0.5 mM, 12 hrs",readily depleted
same,ferroptotic cell death of cells lacking cystinosin,"MEF cells [1]; MEF cells with CTNS knockdown, 24 hrs cystine deprivation, Cysteamine 0.5 mM",rescued
same,ferroptosis in cystine-starved cells (cell viability),"MEF cells [1]; MEF cells, cystine deprivation, Cysteamine 0.5 mM for 24 hrs",rescued
same,lipid oxidation in cystine-starved cells,"MEF cells [2]; cystine deprivation, Cysteamine 0.5 mM for 18 hrs",eliminated
O=C(O)c1cc(/N=N/c2ccc(S(=O)(=O)Nc3ccccn3)cc2)ccc1O [sulfasalazine],susceptibility of cells lacking cystinosin (cell viability),"MEF cells [1]; MEF cells with CTNS knockdown, Erastin 20 μM, Sulfsalazine 200 μM",highly susceptible
same,ferroptosis (cell viability),"MEF cells [1]; MEF cells, 24 hrs, Erastin 20 μM, Sulfsalazine 200 μM",induced
O=C1O[C@H]([C@@H](O)CO)C(O)=C1O [ascorbic acid],ATF4 induction upon cystine starvation,"ATF4; MEF cells, 8 hrs cystine starvation, Ascorbic Acid 20 μM",little effects
same,ATF4 expression induced by homocysteic acid (HCA),"ATF4; MEF cells, HCA 10 mM, Ascorbic Acid 20 μM",attenuated
